Where “and” joins values, the source holds several entries; their conditions need not be identical. Equal entries are not always repeated. Entries after “also recorded” stand apart in the source; their conditions may differ.
Columns and labels:
Assay type in all cases: in vivo
[1] = test system: NOD mice; test: Glucose post oral insulin in fasting 7 week NOD mice (Example 2); settings: for blood glucose over the next 24 hours / blood glucose change after feeding (protein load) / drop in blood glucose after feeding: 1 mg oral; for blood glucose over the next 24 hours: animals in fasting state
Experimental: In order to determine whether any endocrinologic (i.e. direct lowering of blood sugar) effects occurred following the feeding of insulin, 7 week old NOD mice (5 mice per group) were fed 1 mg of porcine insulin or 1 mg of myelin basic protein (obtained from Pel Freez, Rogers, Ark.) as a control protein. Blood glucose was then measured over the next 24 hour period. As a positive control, a separate group of animals were injected subcutaneously with 20 micrograms of Porcine insulin. All animals were kept in the fasting state.

[2] = test system: NOD mice; test: Insulitis in insulin-fed NOD mice (preliminary experiments); settings: fed 1 mg insulin vs PBS-fed NOD mice, data not shown
Description: Therefore, oral administration of insulin to NOD mice appeared to be affecting the infiltration of immune system cells into the pancreas and thus halting disease progression by preserving beta cell function.

[3] = test system: NOD mice; test: Effect of aerosol administration of insulin on diabetes in NOD mice (Example 4); settings: aerosol by nebulizer, 0 to 1 mg
Experimental: Insulin (0 to 1 mg as in Examples 1 and 2) will be administered to NOD mice as described above in Examples 1 and 2 except in aerosol form by nebulizer.

[4] = test system: NOD mice; test: Effect of feeding porcine insulin on spontaneous diabetes in NOD mice (Example 1)
Description: NOD (non-obese diabetic mice) were obtained from Taconic Laboratories (Germantown, Mass.) at 4 weeks of age. There were a total of 30 animals in each of the groups mentioned below at the beginning of the experiment. At […] of age, animals were orally administered Porcine insulin (Novo Laboratories, Danbury, Conn.). Each animal received two treatments orally twice a week until 9 weeks of age. The mice were fed either saline (control) or 10 micrograms, 100 micrograms, or 1 milligram of Porcine insulin. The animals were fed (gavaged) with an 18 gauge ball-point needle (Popper and Sons, Inc., New Hyde Park, N.Y.). Beginning at 10 weeks the animals were then fed once a week for a total of 33 weeks. Beginning at 12 weeks the urine was tested weekly for the presence of glucose using Glucosuria test tape (Eli Lilly, Indianapolis, Ind.). If an animal tested 3+ or higher on the glucose urine test, a serum sample was taken and blood glucose measured using a glucose analyzer (Beckman). If the blood glucose was 220 or higher, the animals were classified as diabetic and then sacrificed.

[5] = test system: NOD mice; test: Treatment of initial stages of diabetes in NOD mice (Example 5); settings: oral and aerosol, 0 to 1 mg, hyperglycemic NOD mice
Experimental: Insulin (0 to 1 mg as in Examples 1 and 2) will be administered to NOD mice which are suffering from hyperglycemia in an oral and aerosol form. The treatments will begin by weeks 12-20 of age, by which the serum glucose levels are at hyperglycemic concentrations in a certain percentage of animals prior to onset of diabetes.

[6] = 20 micrograms porcine insulin subcutaneously, fasting 7 week NOD mice

Row | Substance | endocrinologic (metabolic) effects ([1]; 1 mg oral insulin, NOD mice) | blood glucose over the next 24 hours [1] | blood glucose change after feeding (protein load) ([1]; fasting 7 week NOD mice) | drop in blood glucose after feeding ([1]; fasting 7 week NOD mice) | decrease in the glucose level [1, 6] | period over which glucose decrease persisted [1, 6] [h] | inflammatory immune system cells surrounding the pancreas (insulitis) [2] | prevention of manifestation of symptoms (hyperglycemia) of Type 1 diabetes [3] | development of diabetes ([4]; NOD mice fed 1 mg porcine insulin orally, diabetic = blood glucose 220 or higher) | development of diabetes ([4]; NOD mice fed 10 micrograms porcine insulin orally) | development of diabetes ([4]; NOD mice fed 100 micrograms porcine insulin orally) | incidence of diabetes ([4]; all doses of orally administered insulin tested (10 micrograms to 1 mg)) | blood sugar on 10 representative animals ([4]; fed 1 mg insulin, none diabetic, individual animals) | blood sugar in animals which developed diabetes ([4]; fed 10 micrograms of insulin, individual animals) | blood sugar in animals that became diabetic ([4]; fed 100 micrograms of insulin, individual animals) | beta cell function [5] | serum glucose concentrations [5]
1 | Porcine insulin | not a metabolic effect; also recorded: no endocrinologic (metabolic) effects | gradual decrease in blood glucose | increase in blood glucose | no drop in the blood glucose | approximately 80 mg % | 4 | fewer inflammatory immune system cells surrounding the pancreas | effective in preventing the manifestation of symptoms | none of the mice went on to develop diabetes; also recorded: no diabetes developed; also recorded: None of the animals developed diabetes | diabetes developed | diabetes developed | lower incidence of diabetes; also recorded: reduced the numbers of these mice which subsequently went on to develop diabetes | 174 mg/dl and 128 mg/dl and 125 mg/dl (2×) and 145 mg/dl and 123 mg/dl and 136 mg/dl and 155 mg/dl and 115 mg/dl and 130 mg/dl | 330 mg/dL and 420 mg/dL and 315 mg/dL and 459 mg/dL and 520 mg/dL and 487 mg/dL | 500 mg/dL and 290 mg/dL and 600 mg/dL and 450 mg/dL | preservation of beta cell function | reduction in serum glucose concentrations to near normal levels
2 | myelin basic protein | – | gradual decrease in blood glucose | increase in blood glucose | no drop in the blood glucose | – | – | – | – | – | – | – | – | – | – | – | – | –

Source: patent publication US5763396A, “Method of treating or preventing type 1 diabetes by oral administration of insulin” (AutoImmune Inc., priority 1995, dated 1998)
